SMILES strings stand for the structures.

`COc1ccc(Cl)cc1CCCC(=O)O` displayed a melting point of 79 to 81 °C.

For the molecule `O=C(O)c1ccc(C(=O)O)c(-c2nc3ccccc3o2)c1`, the melting point stood at 284 °C.

Turning to `CCCSc1nc(NC2CC2c2ccc(OC)c(C)c2)c2nnn(C3CC(O)C(O)C3O)c2n1` (configuration not stated), the melting point lay in the range of 135 to 136 °C.

Consider `O=C(c1ccc2c(c1)[C@@H](O)[C@H](Br)CCO2)c1ccccc1F` (relative stereo), for which the melting point was in the range of 219 to 221 °C.

As for `CC(C)N(CCOc1ccccc1NC(=O)c1cccc2[nH]ccc12)C(C)C`, the melting point turned out to be 145 °C.

In turn, `O=C(NCc1cccc2nc(N[C@@H]3CCc4ccccc43)ccc12)c1ccc(F)cc1` displayed a melting point of 145 °C.

With `CCCCCCCCCCCCn1c2cc(Br)ccc2c2ccc(Br)cc21`, the melting point is 78 to 79 °C.

Molecule `CCOC(=O)c1cccc(-c2nc(-c3cc(C)sc3C)cs2)c1` showed a melting point of 115 to 116 °C.

`Nc1c(SC(F)(F)F)cnn1-c1c(Cl)cc(C(F)(F)F)cc1Cl`: the melting point was in the range of 113 to 117 °C.

Turning to `O=C(O)[C@@H](Cc1ccccc1)NS(=O)(=O)c1ccc2ccccc2c1`, the melting point was determined as 146 °C.

Consider `CCC(CC)C(c1ccnn1-c1ccccc1)N(C)S(=O)(=O)c1ccc(Cl)c(Cl)c1` (configuration not stated), for which the melting point fell in the range of 102 to 104 °C.

For `COc1cc(CCCCCCC2OC(=O)NC2=O)ccc1OCc1nc(-c2ccccc2)oc1C` (configuration not stated), the melting point lay within 113 to 117 °C.

Regarding `O=C1c2ccccc2C(=O)N1CCC(=O)N1c2ccccc2N(Cc2ccccc2)C(=O)[C@H]2CCC[C@H]21` (relative stereo), the melting point fell in the range of 242 to 244 °C.

Turning to `O=C1C=CC=C2CN=CC=C12`, the melting point was in the range of 232 to 234 °C.

With `O=C(NNc1ccc(NC(=S)NCc2ccccc2)cc1)c1ccc(Cl)cc1`, the melting point was 197 to 199 °C.

The molecule `O=S(=O)(c1cccc(C(F)(F)F)c1)c1cc(Br)nc(Br)c1` yielded a melting point of 156 to 158 °C.

The molecule `C=CCNC(=O)C(O)C1OC(n2cnc3c(N)ncnc32)C(O)C1O` (configuration not stated) returned a melting point of 136 to 138 °C.

Molecule `CCOC(=O)c1ncn2c1[C@@H]1CCCN1C(=S)c1ccccc1-2` had a melting point of 227 to 229 °C.

In turn, `C[Si](C)(C)N1C(=O)c2ccccc2S1(=O)=O` returned a melting point of 90 to 92 °C.

Take `CC1Sc2c(C(=O)O)c(=O)c3cc(F)c(N4CCNCC4)c(F)c3n21` (configuration not stated): the melting point was 260 °C.

As to `CS(=O)(=O)c1ccc(-c2ccccc2N2CCCCC2)cc1`, the melting point was found to be 140 °C.

As to `Cc1ccc(NC(=O)CN2CCNCC2)cc1Nc1ncc(-c2cccnc2)o1`, the melting point lay within 176 to 178 °C.

Molecule `Cc1c(NC(=O)CCCC(=O)c2ccc(Cl)cc2)ccc2cc(CN3CCCC3)cnc12` displayed a melting point of 173 to 174 °C.

As for `CC(=O)N[C@H]1C=C[C@@H](CO)C1`, the melting point lay in the range of 77 to 80 °C.

`COC(=O)N=C(NC(=O)OC)SC` had a melting point of 99 to 101 °C.

`CN1C(C(=O)Nc2ccccn2)=C(OC(=O)C=Cc2ccccc2)c2ccccc2S1(=O)=O`: the melting point was 156 to 158 °C.

`O=C(c1cccnc1-c1ccncc1)N1CCC(O)(Cc2ccccc2)CC1` showed a melting point of 150 °C.

`CCOP(=O)(CC(=O)Nc1cc2c(Nc3ccc(OCc4cccc(Cl)c4)c(Cl)c3)ncnc2cn1)OCC` returned a melting point of 106 to 109 °C.

In turn, `NS(=O)(=O)c1cnc(-c2cccs2)s1` gave a melting point of 134 to 136 °C.

Consider `COc1ccc(C(NCc2cccc(F)c2)c2cccc(Nc3c(N)c(=O)c3=O)c2)cc1` (configuration not stated), for which the melting point was 209 to 212 °C.

On to `CN1CCN(c2cc(NC(=O)c3ccc(-c4ccncc4)cc3)ccc2Cl)CC1`, for which the melting point is 218 to 219 °C.

Molecule `CC(C(=S)c1ccc(NC=O)nc1)S(C)=O` (configuration not stated) returned a melting point of 125 to 127 °C.

As for `CCCCCCNC(=O)c1cc(OC(C)=O)ccc1OC(C)=O`, the melting point is 76.5 to 77 °C.

`Cc1nc[nH]c1C(=O)Nc1ccc(-n2nc(C3CC3)cc2C(F)(F)F)cc1`: the melting point lay within 245 to 250 °C.

Turning to `COC(=O)NC1CCc2ccc(Cl)cc2C1` (configuration not stated), the melting point lay in the range of 99 to 101 °C.

`CC(=O)c1ccc(-c2nc(=O)c3ccccc3s2)cc1`: the melting point was 198 °C.

For the molecule `CC1(C)OC[C@@H](N)[C@H](O)CO1` (relative stereo), the melting point was in the range of 81.5 to 82.5 °C.

Molecule `CCCCCCCCCCCCCOc1ccc(CNc2ccc(C(=O)O)cc2)cc1` showed a melting point of 110 to 113 °C.

`COc1cc2ncc(OC3CCCCC3)nc2cc1OC1CCCCC1` displayed a melting point of 75 to 78 °C.

Molecule `COCCOC(=O)c1cc(-n2c(OC)nc(C(F)(F)C(F)(F)F)cc2=O)c(F)cc1Cl` gave a melting point of 92 to 94 °C.

Molecule `O=C(O)CNC(=O)c1cc(-c2ccc3c(c2)OCO3)c2c3c(ccc2c1)OCO3` showed a melting point of 255 to 257 °C.

Consider `COC(=O)c1ccc(-c2cccc(CO)c2)cc1`, for which the melting point was in the range of 88 to 89 °C.

With `CC(C)NC(=O)c1cnn(C)c1C(=O)Nc1ccn2nc(-c3ccccc3)nc2c1`, the melting point was greater than 250 °C.

In turn, `O=C(C1CCCCC1)C1CCN(Cc2cc(O)c(O)cc2[N+](=O)[O-])CC1` showed a melting point of 240 °C.

Consider `Fc1ccccc1-c1cc2ccccc2[nH]1`, for which the melting point is 97 to 98 °C.

Regarding `CC(C)(O)C1C(=O)N2C(C(=O)OCc3ccccc3)=C(Sc3ccccc3)CC12` (configuration not stated), the melting point was 133 to 136 °C.

Regarding `CN(C(=O)COc1nnc(Cl)s1)c1ccccc1`, the melting point was 101 °C.

In the case of `CC1CSC2=C(O1)c1cc(N3CCCCC3)ccc1C(=O)C2=O` (configuration not stated), the melting point fell in the range of 225 to 226 °C.

In turn, `Nc1nc(-c2nn(Cc3ccccc3F)c3ncccc23)nc(N)c1Cc1ccccc1` showed a melting point of 193 °C.

The molecule `N#Cc1nn(-c2c(Cl)cc(C(F)(F)F)cc2Cl)c(Cl)c1I` showed a melting point of 116 °C.

Turning to `CCn1c(=O)c2[nH]c(/C=C/c3cc(OC)c(OC)cc3[N+](=O)[O-])nc2n(CC)c1=O`, the melting point came to 284 °C.

For `O=C(O)Cc1ccc(OCCCCl)cc1`, the melting point fell in the range of 89 to 91 °C.

On to `CC(C)NP(N)(=O)NC(=O)c1ccc(F)cc1` (configuration not stated), for which the melting point was 197 to 199 °C.

`CS(=O)(=O)OCCc1ccc(N2CCCC2=O)cc1`: the melting point was 94 °C.

In turn, `CNC(=O)c1cccc(C(C(N)=O)c2c[nH]c3ccccc23)c1` (configuration not stated) came in with a melting point of 168 to 169 °C.

Regarding `COC(=O)c1cc2ccccc2o1`, the melting point lay within 53.8 to 54 °C.

Consider `CN1OCCN(c2cc(Cl)cc(Cl)c2)C1=O`, for which the melting point lay in the range of 105 to 106 °C.

In turn, `Oc1ccnc2ncnn12` returned a melting point of 290 °C.

`CCOc1ccc(N(Cc2ccccc2)Cc2ccccc2)cc1` registered a melting point of 80 to 82 °C.

Molecule `CCOC(=O)c1cc(Oc2ccccc2)ccc1OC` gave a melting point of 52 °C.

On to `O=c1ccn(C2CCCO2)c(=O)[nH]1` (configuration not stated), for which the melting point was 99 to 101 °C.

Molecule `CC(C)c1nc(CCO)n(C)c1Sc1cc(Cl)cc(Cl)c1` displayed a melting point of 177 to 178 °C.

`O=C(NCCCO)c1cc(O)c(O)c([N+](=O)[O-])c1` showed a melting point of 160 to 163 °C.

Take `NC1Cc2ccccc2CN(CC(=O)O)C1=O` (configuration not stated): the melting point lay in the range of 266 to 268 °C.

As to `CN[C@@H]1COc2cc(Cl)cc(-c3ccc(Cl)cc3Cl)c2O1`, the melting point came to 140 °C.

`CCSc1cn(C)cc(-c2ccc(Cl)c(C(F)(F)F)c2)c1=O` returned a melting point of 115 to 116 °C.

Consider `Cc1cc(S(C)(=O)=O)c(S(C)(=O)=O)cc1C(=O)O`, for which the melting point lay in the range of 234 to 235 °C.

`CC(C)(C)OC(=O)C1=Cc2cc(OCc3ccccc3)ccc2OC1` had a melting point of 64 to 67 °C.

As for `COc1cc2cc3c(nc2cc1OC)CCc1cc(Cl)ccc1-3`, the melting point is 197 °C.

The molecule `CCN(CC)CCn1nc2c3c(c(NCCN4C(=O)c5ccccc5C4=O)ccc31)Sc1cc(OC)ccc1-2` returned a melting point of 171 to 172 °C.

In turn, `CN(C)C(=O)Cc1ccc2[nH]cc(CCN3C(=O)c4ccccc4C3=O)c2c1` came in with a melting point of 193 to 194 °C.

Consider `COc1ccc(-c2nnc3c4ccccc4c(Nc4ccc(-c5nn[nH]n5)cc4)nn23)cc1`, for which the melting point lay within 281 to 284 °C.

Consider `COc1ccc(Nc2nccc(-c3ccc(Cl)nc3)n2)cn1`, for which the melting point was 203 to 205 °C.

In the case of `COc1ccc(Cl)cc1S(=O)(=O)N(C)c1ccccc1`, the melting point lay in the range of 88 to 89 °C.

Turning to `CN1CC=C(c2c[nH]c3ccc(Oc4ccccn4)cc23)CC1`, the melting point lay within 240 to 245 °C.

Molecule `COC(=O)c1cc(-n2c(=O)c3c(n(C)c2=O)CCC3)ccc1Cl` registered a melting point of 164 to 166 °C.

In turn, `CN(c1c(Cl)ccc2cc(C(=O)O)[nH]c12)S(=O)(=O)c1cccs1` showed a melting point of 286 to 288 °C.

Regarding `O=C(O)Cn1c(=O)c2cc(Cc3ncc[nH]3)ccc2n(Cc2ccc(Cl)c(Cl)c2)c1=O`, the melting point lay in the range of 243 to 244 °C.

In the case of `CN(C)CCOc1ccc2c(c1)C(c1ccccc1)CC(=O)N2` (configuration not stated), the melting point was 133 to 135 °C.

Turning to `CNc1ccc(-c2ncn(-c3ccc(C(F)(F)F)cc3)n2)cc1`, the melting point lay within 106 to 113 °C.

As to `CC(C)C(S)C(=O)NCC(=O)O` (configuration not stated), the melting point lay within 118 to 119 °C.

Molecule `CNS(=O)(=O)c1cc(C)ccc1C=C1c2ccccc2CCc2ccccc21` gave a melting point of 175 °C.

In turn, `O=c1[nH]c2cc(Cl)c(Cl)c(Cn3cncn3)c2[nH]c1=O` yielded a melting point greater than 320 °C.

`Cn1ccc(N)cc1=O` gave a melting point of 200 to 202 °C.

The molecule `CC(O)C(C)(C)NC(N)=S` (configuration not stated) displayed a melting point of 148 to 151 °C.

For `Cc1ccc(-c2cnc(-c3cc(C(F)(F)F)cc(C(F)(F)F)c3)s2)s1`, the melting point lay in the range of 120 to 121 °C.

On to `O=C(O)C1=CC(CF)(CF)Oc2ccc(C(F)(F)F)cc21`, for which the melting point was 159 to 161 °C.

`CN1CCN(C(=O)c2cnn(C)c2C(=O)Nc2ccn3nc(-c4cccc(F)c4)nc3c2)CC1` gave a melting point of 224 to 227 °C.

In the case of `Cc1cc(C)n(-c2nccc(NC3CCCCC3)n2)n1`, the melting point is 144 to 147 °C.

For `CC(C(=O)c1ccc2c(c1)CC(=O)N2)N1CCC(O)(Cc2ccccc2)CC1` (configuration not stated), the melting point was in the range of 188 to 192 °C.

The molecule `CCCCc1nc2cc(-c3ccccc3)cc(C(=O)OC)c2n1Cc1ccccc1Cl` came in with a melting point of 103 to 105 °C.

In turn, `CCCC[C@H](NC(=O)[C@H](CC(C)C)NC(=O)c1cc(F)cc(F)c1)C(=O)CSCc1ccco1` displayed a melting point of 125 to 126 °C.

For the origin of these results see a melting point compilation (Tetko et al.; mined from patent text by program, amines drawn as free bases though some values may be those of a salt).
